Patent publication US6455041B1, “Immunogenic epitopes of the human zona pellucida protein (ZP1)” (priority 1998, dated 2002)

Key:
[1] = system: antibodies from rabbits immunized with heat solubilized, native porcine ZP proteins (HSZP); experiment: Biotinylated peptide assay, pooled antisera from rabbits immunized with porcine ZP (HSPZ); type: binding, rabbit; details: Complete Freund's Adjuvant, FIG. 1B
Experimental: (§1) Peptides containing 15 amino acid residues, which overlapped by 9 amino acids, were designed to ensure that all potential epitopes would be identified. Biotinylated peptides (BP) containing 15-mers with a 9-amino acid overlap were synthesized by Chiron Mimotopes Pty. Ltd. (Victoria, Australia).
(§2) For the assay, streptavidin (Sigma Chemicals, S-4762) was diluted to 5 μg/ml in deionized water and dispensed at 100 μl well into 96-well microtiter plates (Immulon 2, Dynatech Labs) and plates are incubated overnight at 32° C. to evaporate to complete dryness. Plates were then rinsed four times in wash buffer of pH 7.3, consisting of 0.02M sodium phosphate containing 0.15M NaCl and 0.05% Tween 20. The plates were blocked using 200 μl 0.02M sodium phosphate buffered saline (PBS) containing 2% nonfat dried milk (pH 8.8) for 2 hours at room temperature and the rinse was repeated. Blocking and all incubations were carried out using a Minimix shaker (Fisher). Biotinylated peptides were then dispensed such that the final: dilution of each was 1:10,000 and was made in wash buffer containing 2% nonfat dried milk. […]
(§3) After rinsing with blocking solution, 100 μl/well of antibody solution was added and plates incubated at RT for 2 hours with shaking. […] The plates were incubated at RT with shaking for 45 minutes and read in a Titertek Multiskan reader at 405 nm. […]

[2] = system: antibodies from baboons immunized with HSZP; experiment: Biotinylated peptide assay, antisera from baboons immunized with porcine ZP (HSPZ); type: binding, baboon; details: for peptide recognition by sera of individual baboons: four baboons (#1994, #2020, #2044, #2032) immunized with HSZP, sera 3 weeks after second booster, dilution 1/1000, FIGS. 2A-2D; for peptide recognition by baboon serum pool: pooled antisera from baboons immunized with HSZP, TiterMax adjuvant, FIG. 1C
Experimental: Lyophilized porcine ZP immogen was prepared and solubilized in 0.1 M sodium carbonate, pH 9.6 and heated at 60° C. for ten minutes as previously described (42, 45). Immunogen was emulsified in Titer Max adjuvant (50%) by passage through syringes with 19 gauge needles connected by tygon tubing. Animals were sedated with Ketarmine (10 mg/kg) prior to injection with 200 μl containing ^150 μg ZP immunogen (primary and boosts). Animals were immunized and boosted at 3 week and 6 week intervals.
Blood samples were collected at approximately 3 week intervals following the booster injections, and were obtained from femoral veins under Ketamine sedation. Serum was isolated by conventional methods an conveyed frozen to the U.S.A. laboratory facility for analysis. For the present studies, serum samples taken at three weeks following the second booster injection were used. The ELISA assay previously described by Drell and Dunbar, 1984 (46) was used to determine the levels of antibody against immobilized HSPZ. Antisera previously obtained from baboons immunized against electrophoretically purified porcine ZP1 (35) were used as a positive control for these assays. Nonimmune sera from animals immunized with adjuvant alone were used as a negative control.
as §1
For the assay, streptavidin (Sigma Chemicals, S-4762) was diluted to 5 μg/ml in deionized water and dispensed at 100 μl well into 96-well microtiter plates (Immulon 2, Dynatech Labs) and plates are incubated overnight at 32° C. to evaporate to complete dryness. Plates were then rinsed four times in wash buffer of pH 7.3, consisting of 0.02M sodium phosphate containing 0.15M NaCl and 0.05% Tween 20. The plates were blocked using 200 μl 0.02M sodium phosphate buffered saline (PBS) containing 2% nonfat dried milk (pH 8.8) for 2 hours at room temperature and the rinse was repeated. Blocking and all incubations were carried out using a Minimix shaker (Fisher). Biotinylated peptides were then dispensed such that the final: dilution of each was 1:10,000 and was made in wash buffer containing 2% nonfat dried milk. Peptides (100 μl per well) were incubated overnight at 4° C. on the shaker.
Initially, each peptide was solubilized in 200 μl of DMSO per manufacturers' instructions and stored this long term at −80° C. Approximately 2 μl was used to make a 1:5,000 stock solution diluted in PBs containing 0.1% BSA and 0.1% sodium aside. These stocks were then stored at −20° C. and are diluted 1:10,000 for assays. […]

[3] = system: antibodies in sera of baboons administered electrophoretically purified, denatured porcine ZP proteins; experiment: Biotinylated peptide assay, sera from baboons immunized with chemically deglycosylated, electrophoretically purified porcine ZP proteins; type: binding, baboon; details: two baboons immunized with deglycosylated, FIGS. 3A-3B
Experimental: as §1
as §2, with “(Fisher).” for “(Fisher). Biotinylated peptides were then dispensed such that the final: dilution of each was 1:10,000 and was made in wash buffer containing 2% nonfat dried milk.”
as §3
Additional sera from baboons administered electrophoretically purified, denatured porcine ZP proteins as the immunogen (35), were evaluated. […]

Substance | peptide recognition by rabbit serum pool [1] | peptide recognition by sera of individual baboons [2] | peptide recognition by baboon serum pool [2] | peptide recognition by baboon sera [3]
54 (SGSGFPETQPGPLTLELQI; listed as Homo sapiens) [compound 54] | recognized by both serum pools | all four of the animals recognized | recognized by both serum pools | again recognized by the baboon sera
55 (SGSGGPLTLELQIAKDKNY; listed as Homo sapiens) [compound 55] | recognized by both serum pools | all four of the animals recognized | recognized by both serum pools | again recognized by the baboon sera
